Test results from publication PMC12689286, “Enhanced therapeutics of cabazitaxel via polycarboxylate conjugation: improved solubility, safety, and antitumor efficacy” (Frontiers in Immunology, 2025).

Experiments:
[1] = Lipid-aqueous (octanol/water) partition coefficient; assay type: physicochemical; settings: room temperature
Procedure: CTXs were dissolved in octanol, and an equal volume of water was added, followed by shaken at 100 rpm for 24 h at room temperature. The upper octanol phase and lower water phase were separated by centrifugation. The supernatant was analyzed by HPLC (Bruker SolanX 70 FT-MS; Agilent 6540TOF) ([21]).

A549 = experiment: MTS cytotoxicity, A549; assay type: cell-based; settings: Homo sapiens
Procedure: (§1) Human cancer cell lines were cultured in basic medium (10% fetal bovine serum (FBS)+1% double antibody solution) (Biological Industries) at 37°C in a 5% CO2 incubator. Effects of CTXs on cell proliferation and viability were measured by an MTS (Promega Corporation) assay. Absorbance values at 490 nm were measured using a microplate reader (Thermo Scientific, Varioskan Flash) ([22]).

Bel-7402 = experiment: MTS cytotoxicity, Bel-7402; assay type: cell-based; settings: Homo sapiens; Bel-7402, MTS
Procedure: as §1

DU145 = experiment: MTS cytotoxicity, DU145; assay type: cell-based; settings: Homo sapiens, DU-145
Procedure: as §1

Fadu = experiment: MTS cytotoxicity, Fadu; assay type: cell-based; settings: Homo sapiens
Procedure: as §1

H358 = experiment: MTS cytotoxicity, H358; assay type: cell-based; settings: Homo sapiens, NCI-H358
Procedure: as §1

H460 = experiment: MTS cytotoxicity, H460; assay type: cell-based; settings: Homo sapiens, NCI-H460
Procedure: as §1

H520 = experiment: MTS cytotoxicity, H520; assay type: cell-based; settings: Homo sapiens, NCI-H520
Procedure: as §1

HCT 116 = experiment: MTS cytotoxicity, HCT 116; assay type: cell-based; settings: Homo sapiens; HCT 116, MTS
Procedure: as §1

HT-29 = experiment: MTS cytotoxicity, HT-29; assay type: cell-based; settings: Homo sapiens; HT-29, MTS
Procedure: as §1

LN229 = experiment: MTS cytotoxicity, LN229; assay type: cell-based; settings: Homo sapiens, LN-229
Procedure: as §1

MCF-7 = experiment: MTS cytotoxicity, MCF-7; assay type: cell-based; settings: Homo sapiens, MCF7; MCF-7, MTS
Procedure: as §1

PC-3 = experiment: MTS cytotoxicity, PC-3; assay type: cell-based; settings: Homo sapiens; PC-3, MTS
Procedure: as §1

SK-OV-3 = experiment: MTS cytotoxicity, SK-OV-3; assay type: cell-based; settings: Homo sapiens; SK-OV-3, MTS
Procedure: as §1

L-02 = experiment: MTS cytotoxicity, L-02 (non-tumor); assay type: cell-based; settings: Homo sapiens, L02, L-02 non-tumor cell line
Procedure: as §1

3T3 = experiment: MTS cytotoxicity, 3T3 (non-tumor); assay type: cell-based; settings: Mus musculus, NIH3T3, 3T3 non-tumor cell line
DU145 cells = experiment: Cell cycle arrest (PI, flow cytometry); assay type: cell-based, human; settings: 24 h
Procedure: Cells were incubated with drugs for 24 h. Fixed cells were incubated with RNase A and stained with propidium iodide (PI). DNA content was determined in a flow cytometer (BD FACS CaliburTM Flow Cytometer, USA) ([23]).

Hemolysis test = assay type: cell-based, SD rats; settings: SD, rat, rat red blood cells, 2% (v/v) suspension, 37 °C, 1.5 h
Procedure: (§2) The hemolytic potential of CTX formulations was evaluated using rat red blood cells (RBCs). Briefly, whole blood was collected from the abdominal aorta of anesthetized SD rats into ACD anticoagulant (blood:ACD = 1:4, v/v). The blood was diluted with normal saline (4:5, v/v) and centrifuged at 450 g for 10 min. The RBC pellet was washed three times with normal saline until the supernatant was clear. The washed RBCs were then resuspended in normal saline to prepare a 2% (v/v) suspension.
(§3) For the assay, 500 μL of the 2% RBC suspension was mixed with an equal volume of serially diluted drugs or controls in 1.5 mL tubes. The controls included: Negative control (0% hemolysis): normal saline. Positive control (100% hemolysis): distilled water. Solvent control: the vehicle for unmodified CTX (2.5% Tween 80 + 2.5% anhydrous ethanol + 95% normal saline). The mixtures were incubated at 37 °C for 1.5 h and then centrifuged at 450 g for 5 min. Subsequently, 150 μL of the supernatant from each tube was transferred to a 96-well plate, and the absorbance at 545 nm (OD545) was measured using a microplate reader. The percentage of hemolysis was calculated using the following formula: Hemolysis (%) = [(ODsample - ODnegative control)/(ODpositive control - ODnegative control)] × 100.

[2] = system: rat red blood cells (RBCs); experiment: Hemolysis test; assay type: cell-based, SD rats; settings: vs unmodified CTX
Procedure: as §2, §3

[3] = system: DU145 prostate cancer model; experiment: DU145 prostate cancer xenograft, tumor volume; assay type: in vivo, BALB/c nude mice; settings: 3 μmol/kg tail vein, three times at 3-day intervals, control 500 ± 45 mm³
Procedure: (§4) All animal experiments were conducted in accordance with protocols approved by the Institutional Animal Care and Use Committee of Peking Union Medical College. Male BALB/c nude mice (6–8 weeks old) and female KM mice (6–8 weeks old) were purchased from Charles River Laboratories (Beijing, China) and maintained under specific pathogen-free conditions.
DU145 Prostate cancer model: DU145 cells (3×10^6 cells/mouse) were subcutaneously inoculated into the right flank of BALB/c nude mic. When tumors reached approximately 100 mm³, mice were randomly divided into four treatment groups (n=6/group): (a) Vehicle control; (b) CTX (3 μmol/kg); (c) CTX-TTHA (3 μmol/kg); (d) CTX-DTPA (3 μmol/kg). Treatments were administered via tail vein injection three times at 3-day intervals. Major organs were collected for histopathological examination after the final administration.

MCF-7 xenografts = experiment: MCF-7 breast cancer xenograft, tumor volume; assay type: in vivo, BALB/c nude mice; settings: MCF-7 xenograft, 9.6 μmol/kg
Procedure: as §4
MCF-7 Breast Cancer Model: Female BALB/c nude mice bearing MCF-7 xenografts (2×10^6 cells/mouse) were randomized into treatment groups as described above, with an adjusted dose of 9.6 μmol/kg for all CTX formulations.

[4] = Systemic toxicity in H22 tumor-bearing mice (body weight, blood count); assay type: in vivo, KM mice; settings: H22 mice, throughout treatment, across all dose groups (9.6 and 19.1 μmol/kg)
Procedure: H22 hepatoma model: Female KM mice were subcutaneously implanted with H22 cells (2×10^6 cells/mouse) and assigned to six groups: (a) Vehicle control; (b) CTX (9.6 μmol/kg in 5% glucose with 2.5% ethanol/2.5% Tween 80); (c) CTX-TTHA (9.6 μmol/kg in saline); (d) CTX-DTPA (9.6 μmol/kg in saline); (e) CTX-TTHA (19.1 μmol/kg in saline); (f) CTX-DTPA (19.1 μmol/kg in saline).
Treatments were administered every other day for four doses (three doses for CTX group due to weight loss >15%). Peripheral blood samples were collected for complete blood count analysis using an automated hematology analyzer.

[5] = Plasma pharmacokinetics (non-compartmental); settings: SD rats
Procedure: (§5) Male and female SD rats (200–220 g) received intravenous injections of CTX or CTX-DTPA (6 μmol/kg). CTX was dissolved in 2.5% Tween 80/2.5% EtOH/saline, while CTX-DTPA used saline alone. Blood samples were collected at 5 min to 24 h post-dose. Tissues (heart, liver, spleen, lung, kidney, thymus) and excreta were collected at 15 min, 2 h, 4 h, and 12 h. Plasma and tissue samples were processed by liquid-liquid extraction with n-butanol and analyzed via LC-MS/MS (Agilent Poroshell 120 EC-C18 column; 0.05% formic acid/acetonitrile gradient). Pharmacokinetic parameters were calculated using DAS 2.0 via non-compartmental analysis.

Tissue distribution = settings: CTX metabolite after CTX-DTPA 6 μmol/kg iv, SD rats
Procedure: as §5

[6] = CTX-DTPA 6 μmol/kg iv, plasma, CTX metabolite derived from CTX-DTPA

Work on `COC1C(=O)C2(C)C(OC)CC3OCC3(OC(C)=O)C2C(OC(=O)c2ccccc2)C2(O)CC(OC(=O)C(OC(=O)CN(CCN(CCN(CCN(CC(=O)O)CC(=O)O)CC(=O)O)CC(=O)O)CC(=O)O)C(NC(=O)OC(C)(C)C)c3ccccc3)C(C)=C1C2(C)C` (stereo not shown) [CTX-TTHA] yielded a logP at 24 h [1] of -1.37 ± 0.38, an IC50 (A549) of 3.3 ± 1.6 nM and an IC50 (Bel-7402) of 2.4 ± 0.4 nM. The IC50 (DU145) was 4.1 ± 2.2 nM, the IC50 (Fadu) was 2.3 ± 0.9 nM and the IC50 (H358) was 1.6 ± 0.4 nM. For the same compound, the IC50 (H460) was 1.9 ± 0.7 nM, the IC50 (H520) was 2.1 ± 0.6 nM and the IC50 (HCT 116) was 2.1 ± 0.9 nM. It also gave an IC50 (HT-29) of 8.4 ± 3.8 nM, an IC50 (LN229) of 7.6 ± 3.1 nM and an IC50 (MCF-7) of 5.5 ± 2.3 nM. It also gave an IC50 (PC-3) of 7.4 ± 2.8 nM, an IC50 (SK-OV-3) of 3.2 ± 0.8 nM and an IC50 (L-02) of 6.8 ± 0.4 nM. For the same compound, the IC50 (3T3) was 8 ± 3.3 nM, the “cells arrested in G2/M” value (DU145 cells; DU145, 1 nM) was 15.1 ± 0.1% and the “cells arrested in G2/M” value (DU145 cells; DU145, 25 nM) was 69.9 ± 12.6%. The hemolysis at 1.5 h, 300 nmol/mL (Hemolysis test; 300 nmol/mL (maximum tested), read-out: hemolysis rate) was 28.3 ± 13.9%, the hemolysis at 1.5 h (Hemolysis test; concentrations up to 150 nmol/mL) was less than 2% and the “improvement in hemocompatibility over unmodified CTX” value [2] was 64 fold. The final tumor volume [3] was 270 ± 28 mm³, the “tumor volume at study endpoint” value (MCF-7 xenografts) was 190 ± 22 mm³ and the WBC counts [4] was 3.50-5.60 ×10^9/L.

In the case of `CO[C@H]1C(=O)[C@]2(C)[C@@H](OC)C[C@H]3OC[C@@]3(OC(C)=O)[C@H]2[C@H](OC(=O)c2ccccc2)[C@]2(O)C[C@H](OC(=O)[C@H](O)[C@@H](NC(=O)OC(C)(C)C)c3ccccc3)C(C)=C1C2(C)C` [CTX/CTX-DTPA], the “Cmax relative to CTX” value ([5]; 6 μmol/kg iv, CTX metabolite from CTX-DTPA vs CTX group, greater) is reported as 2.2 fold, the AUC(0-t) [5, 6] is reported as “**** 5157.71 ± 1650.87 μg/L*h” and the CL [5, 6] is reported as 25.2 ± 6.83 mL/min/kg. The Cmax [5, 6] was “* 6311.67 ± 1217.79 μg/L”, the MRT0-t [5, 6] was 0.72 ± 0.02 H and the Vd [5, 6] was “* 6.04 ± 1.63 L/kg”. For the same compound, the t1/2 [5, 6] was “**** 2.77 ± 0.00 H”, the tissue concentration (Tissue distribution; heart, 15 min) was “* 2.38 ± 0.46 μg/kg” and the tissue concentration (Tissue distribution; heart, 2 h) was “*** 2.27 ± 0.70 μg/kg”. The tissue concentration (Tissue distribution; heart, 4 h) was “*** 1.26 ± 0.20 μg/kg”, the tissue concentration (Tissue distribution; heart, 12 h) was “** 0.41 ± 0.29 μg/kg” and the tissue concentration (Tissue distribution; kidney, 15 min) was “**** 53.38 ± 7.21 μg/kg”. The tissue concentration (Tissue distribution; kidney, 2 h) was “** 63.87 ± 43.92 μg/kg”, the tissue concentration (Tissue distribution; kidney, 4 h) was “*** 8.74 ± 0.10 μg/kg” and the tissue concentration (Tissue distribution; kidney, 12 h) was “**** 3.14 ± 1.66 μg/kg”. The tissue concentration (Tissue distribution; liver, 15 min) was “*** 17.88 ± 1.12 μg/kg”, the tissue concentration (Tissue distribution; liver, 2 h) was “** 10.31 ± 7.28 μg/kg” and the tissue concentration (Tissue distribution; liver, 4 h) was “** 4.62 ± 3.48 μg/kg”. For the same compound, the tissue concentration (Tissue distribution; liver, 12 h) was “* 1.91 ± 1.12 μg/kg”, the tissue concentration (Tissue distribution; lung, 15 min) was “*** 12.95 ± 5.49 μg/kg” and the tissue concentration (Tissue distribution; lung, 2 h) was “**** 9.66 ± 5.84 μg/kg”. For the same compound, the tissue concentration (Tissue distribution; lung, 4 h) was “**** 2.44 ± 0.01 μg/kg”, the tissue concentration (Tissue distribution; lung, 12 h) was “* 1.78 ± 0.82 μg/kg” and the tissue concentration (Tissue distribution; spleen, 15 min) was “** 5.49 ± 0.53 μg/kg”. The tissue concentration (Tissue distribution; spleen, 2 h) was “**** 8.23 ± 4.20 μg/kg”, the tissue concentration (Tissue distribution; spleen, 4 h) was “** 2.61 ± 0.42 μg/kg” and the tissue concentration (Tissue distribution; spleen, 12 h) was “** 1.43 ± 0.96 μg/kg”. For the same compound, the tissue concentration (Tissue distribution; thymus, 15 min) was “** 1.49 ± 0.02 μg/kg”, the tissue concentration (Tissue distribution; thymus, 2 h) was “* 4.37 ± 5.02 μg/kg” and the tissue concentration (Tissue distribution; thymus, 4 h) was “* 0.79 ± 0.28 μg/kg”. For the same compound, the tissue concentration (Tissue distribution; thymus, 12 h) was “**** 0.80 ± 0.42 μg/kg”.
